Like-named read-outs stand apart in the source and are kept apart here.
What was measured:
[1] = Drug concentration in brain tissues of rats, oral gavage; format: in vivo; conditions: SD, rat, p.o. 20 mg/kg
Experimental: 3.2 6 healthy SD rats of 6-9 weeks old were selected, and the test compound was administered by oral gavage (with a solvent of 50 mM citrate buffer solution, pH=5). Two animals were randomly selected at 0.5 hour, 1 hour and 4 hours after administration respectively, and plasma and brain tissue samples were collected for quantitative analysis of all biological samples using the LC-MS/MS method.

MC1R = target: T1, MC1R (Homo sapiens, UniProt Q01726); assay: In vitro activity of MCR receptors, intracellular cAMP signal (HEK293T/MCR cell line), MC1R; format: cell-based; conditions: cAMP, HEK293T/MCR cell line; read-out: MC1R EC50
T1 construct: expressed in transfected cells
T1 sequence (Q01726 whole entry): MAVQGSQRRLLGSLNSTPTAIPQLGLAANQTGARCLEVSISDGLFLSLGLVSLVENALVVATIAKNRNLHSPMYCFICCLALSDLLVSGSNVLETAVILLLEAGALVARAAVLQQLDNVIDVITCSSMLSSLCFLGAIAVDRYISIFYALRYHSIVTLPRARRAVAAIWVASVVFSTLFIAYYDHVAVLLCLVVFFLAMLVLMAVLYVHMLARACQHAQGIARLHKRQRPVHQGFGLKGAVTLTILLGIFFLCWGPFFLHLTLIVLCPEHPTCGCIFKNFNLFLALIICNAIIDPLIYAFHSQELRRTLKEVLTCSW
Experimental: (§1) Test purpose: to evaluate the agonistic effect of the compound on MCRs by detecting intracellular cAMP signal changes.
(§2) Cells were resuspended with 1×PBS+500 μM IBMX. 10 μL of the cell suspension was added into a 384-well plate to be tested, and the cell concentration was adjusted to 1×10^4 cells per well for later use. A pre-prepared solution of the compound to be tested was added, and dimethyl sulfoxide of the same volume was added to blank control wells. The test plate was centrifuged at 300 rpm for 1 minute, incubated at 37° C. for 30 minutes, and added with 5 μL of cAMP-d2 and 5 μL of a CAMP-cry antibody detection reagent. The test plate was centrifuged at 300 rpm for 1 minute, and incubated at room temperature for 60 minutes.

MC4R = target: T2, MC4R (Homo sapiens, UniProt P32245); assay: In vitro activity of MCR receptors, intracellular cAMP signal (HEK293T/MCR cell line), MC4R; format: cell-based; conditions: cAMP, HEK293T/MCR cell line; read-out: MC4R EC50
T2 construct: expressed in transfected cells
T2 sequence (P32245 whole entry): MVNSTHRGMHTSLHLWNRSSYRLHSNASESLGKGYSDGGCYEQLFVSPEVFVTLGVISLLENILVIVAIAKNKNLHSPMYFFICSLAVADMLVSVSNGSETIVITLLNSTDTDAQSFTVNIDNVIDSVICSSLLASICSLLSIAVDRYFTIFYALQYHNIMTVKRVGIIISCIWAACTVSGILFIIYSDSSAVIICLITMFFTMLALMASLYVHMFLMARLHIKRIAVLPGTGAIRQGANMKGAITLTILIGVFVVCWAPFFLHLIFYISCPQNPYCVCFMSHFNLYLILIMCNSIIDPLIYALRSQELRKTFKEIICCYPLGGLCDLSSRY
Experimental: as §1
as §2, with “minutes. The test plate was placed in the Envision multifunctional microplate reader for reading, with a detection wavelength of 665/615 nm.” for “minutes.”

MC5R = target: T3, MC5R (Homo sapiens, UniProt P33032); assay: In vitro activity of MCR receptors, intracellular cAMP signal (HEK293T/MCR cell line), MC5R; format: cell-based; conditions: cAMP, HEK293T/MCR cell line; read-out: MC5R EC50
T3 construct: expressed in transfected cells
T3 sequence (P33032 whole entry): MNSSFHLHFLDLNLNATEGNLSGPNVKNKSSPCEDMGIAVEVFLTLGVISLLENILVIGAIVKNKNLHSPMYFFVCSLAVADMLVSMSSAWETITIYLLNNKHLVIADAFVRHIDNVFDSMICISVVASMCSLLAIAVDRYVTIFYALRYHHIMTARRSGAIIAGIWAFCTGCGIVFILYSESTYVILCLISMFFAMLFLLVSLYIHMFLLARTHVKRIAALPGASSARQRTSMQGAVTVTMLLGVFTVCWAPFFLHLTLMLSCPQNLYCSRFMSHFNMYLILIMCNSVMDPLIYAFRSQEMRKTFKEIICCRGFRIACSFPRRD
Experimental: as §1
as §2, with “minutes. The test plate was placed in the Envision multifunctional microplate reader for reading, with a detection wavelength of 665/615 nm.” for “minutes.”

[2] = Drug concentration in brain tissues of rats, intravenous injection; format: in vivo, SD rats; conditions: rat, i.v. 2 mg/kg
Experimental: 3.1 6 healthy SD rats of 6-9 weeks old were selected, and the test compound was administered via intravenous injection. Two animals were randomly selected at 0.5 hour, 2 hours and 4 hours after administration respectively, and plasma and brain tissue samples were collected, and the quantitative assay of all biological samples was performed using the LC-MS/MS method.

MC3R = target: T4, MC3R (Homo sapiens, UniProt P41968); assay: In vitro activity of MCR receptors, intracellular cAMP signal (HEK293T/MCR cell line), MC3R; format: cell-based
T4 construct: expressed in transfected cells
T4 sequence (P41968 whole entry): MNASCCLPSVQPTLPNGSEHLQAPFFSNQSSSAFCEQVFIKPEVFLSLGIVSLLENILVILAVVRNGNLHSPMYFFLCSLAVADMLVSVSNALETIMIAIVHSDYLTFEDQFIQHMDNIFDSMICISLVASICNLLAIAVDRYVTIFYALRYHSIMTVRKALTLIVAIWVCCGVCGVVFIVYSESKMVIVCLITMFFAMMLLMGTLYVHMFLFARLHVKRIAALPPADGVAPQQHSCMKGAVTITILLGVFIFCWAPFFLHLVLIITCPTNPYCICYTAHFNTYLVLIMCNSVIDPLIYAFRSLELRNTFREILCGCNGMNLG
Experimental: as §1, §2

[3] = Pharmacokinetic parameters in rat plasma; format: in vivo, SD rats; conditions: SD
Experimental: 4 healthy SD rats of 6-9 weeks old were selected and randomly divided into two groups, 2 rats in each group. One group was administered with the test compound via intravenous injection, with 5% DMSO+95% (a 10% HP-β-CD aqueous solution) as a solvent, and the other group was administered with the test compound by gavage, with a 50 mM citric acid buffer solution at pH=5 as a solvent. Plasma samples were collected from animals in both intravenous and intragastric groups at 0.083 hour, 0.25 hour, 0.5 hour, 1.0 hour, 2.0 hours, 4.0 hours, 6.0 hours, 8.0 hours and 24 hours after administration, respectively. Quantitative analysis of all biological samples was performed using an LC-MS/MS method, with WinNonlin™ Version 6.3 (Pharsight, Mountain View, CA) pharmacokinetic software, to calculate relevant pharmacokinetic parameters using a […] model linear logarithmic trapezoid method. AUCo-last represented an area under a plasma concentration time curve from a time point zero to a last time point where the concentration can be detected; p.o. represented oral administration; i.v. represented intravenous injection; T1/2 represented the half life; CL represented the clearance rate; Vd represented the apparent distribution volume; AUC0-last represented the area under the curve; Cmax represented the peak concentration; Tmax represented the peak time; and F % represented oral bioavailability.

## C[C@@H]1CN(C(=O)[C@@H]2CN(C3CCOCC3)C[C@H]2c2ccc(F)cc2F)C[C@H](C)N1c1ccc(F)cc1 (single isomer, unassigned) [Compound 7]
[1]; brain, 0.5 hour, read-out: Brain drug concentration
  concentration at 0.5 h: 8600 nM
[1]; brain, 1 hour, read-out: Brain drug concentration
  concentration at 1 h: 9680 nM
[1]; brain, 4 hours, read-out: Brain drug concentration
  concentration at 4 h: 11400 nM
[1]; brain/plasma, 0.5 hour
  Kp uu at 0.5 h: 1.5
[1]; brain/plasma, 0.5 hour, read-out: Brain-to-blood ratio
  Kp at 0.5 h: 11
[1]; brain/plasma, 1 hour
  Kp uu at 1 h: 1.5
[1]; brain/plasma, 1 hour, read-out: Brain-to-blood ratio
  Kp at 1 h: 10.8
[1]; brain/plasma, 4 hours
  Kp uu at 4 h: 1.3
[1]; brain/plasma, 4 hours, read-out: Brain-to-blood ratio
  Kp at 4 h: 9.5
[1]; plasma, 0.5 hour, read-out: Plasma drug concentration
  concentration at 0.5 h: 783 nM
[1]; plasma, 1 hour, read-out: Plasma drug concentration
  concentration at 1 h: 899 nM
[1]; plasma, 4 hours, read-out: Plasma drug concentration
  concentration at 4 h: 1200 nM
MC1R
  EC50: 459 nM
MC4R
  EC50: 12 nM
MC5R
  EC50: > 10000 nM
[2]; SD, brain, iv, 0.5 hour, read-out: Brain drug concentration
  concentration at 0.5 h: 2830 nM
[2]; SD, brain, iv, 2 hours, read-out: Brain drug concentration
  concentration at 2 h: 965 nM
[2]; SD, brain/plasma, iv, 0.5 hour, read-out: Brain-to-blood ratio
  Kp at 0.5 h: 7.8
[2]; SD, brain/plasma, iv, 2 hours, read-out: Brain-to-blood ratio
  Kp at 2 h: 6.9
[2]; SD, plasma, iv, 0.5 hour, read-out: Plasma drug concentration
  concentration at 0.5 h: 362 nM
[2]; SD, plasma, iv, 2 hours, read-out: Plasma drug concentration
  concentration at 2 h: 141 nM
[2]; 4 hours
  Brain drug concentration (nmol/L): BQL
  Plasma drug concentration (nmol/L): BQL
MC3R
  EC50: 4220 nM
[3]; iv, i.v. 2 mg/kg
  AUC(0-t): 0.897 µM·h
  Vd: 8 L/kg
  clearance: 73 mL/min/kg
  half-life: 1.5 h
[3]; p.o. 5 mg/kg, oral bioavailability
  bioavailability: 37%
[3]; po, p.o. 5 mg/kg
  AUC(0-t): 0.796 µM·h
  Cmax: 195 nM
  Tmax: 1 h

Reference: US20240238281A1, “PIPERAZINE DERIVATIVES AND APPLICATION THEREOF” (priority 2021, published 2024)
